One assay concerns Bacillus subtilis. Briefly: Antibacterial activity against Bacillus subtilis ATCC 6633 after 24 hrs by twofold serial dilution method. The assay is classed as functional. The conditions noted are these: ATCC 6633, 24 h.
The test system of a further assay is Salmonella typhimurium. Briefly: Antibacterial activity against Salmonella typhimurium ATCC 14028 after 24 hrs by twofold serial dilution method. The assay is classed as functional, Salmonella enterica subsp. enterica serovar Typhimurium. Particulars: Salmonella enterica, ATCC 14028, 24 h.
Another assay has as its system K562. Nature of the assay: Cytotoxicity against human K562 cells by MTT assay. It counts as functional. Particulars: read-out: LC50 (the source's name). On the technique in general: Tetrazolium assays rely on reduction of a dye to a coloured formazan, in cell work by metabolically active cells.
A further assay relates to Micrococcus luteus. Briefly: Antibacterial activity against Micrococcus luteus IFO 12708 after 24 hrs by twofold serial dilution method. It counts as functional. The conditions noted are these: IFO 12708, 24 h.
Another assay relates to Proteus vulgaris. Briefly: Antibacterial activity against Proteus vulgaris ATCC 3851 after 24 hrs by twofold serial dilution method. The assay is classed as functional. The conditions noted are these: ATCC 3851, 24 h.
For another assay, the system named is Escherichia coli. Briefly: Antibacterial activity against Escherichia coli ATCC 25922 after 24 hrs by twofold serial dilution method. It counts as functional. The conditions noted are these: ATCC 25922, 24 h.
In the next assay the test system is Staphylococcus aureus. Briefly: Antibacterial activity against Staphylococcus aureus ATCC 6538p after 24 hrs by twofold serial dilution method. It counts as functional.
A short description of assay [1]: Inhibition of Magnaporthe grisea Guy 11 isocitrate lyase. On the set-up: species or system Pyricularia oryzae.

Values after ≈ are worked out from the molar mass of the structure shown.

The term MIC denotes the lowest concentration that inhibits growth of the organism. High values mean weaker potency, low ones greater potency. For `CC(=O)OC[C@]12CCCC(C)(C)[C@@H]1CC[C@]1(C)[C@@H]2C[C@@H](OC(C)=O)[C@]2(C)[C@@H]3C(=CC[C@@H]12)CO[C@H]3O`, the MIC with Bacillus subtilis was 0.78 mg/L (≈ 1.6 µM); against Salmonella typhimurium it was greater than 100 mg/L; in the assay with Micrococcus luteus, greater than 100 mg/L; with Proteus vulgaris, 3.12 mg/L (≈ 6.39 µM); in the assay with Escherichia coli, greater than 100 mg/L; in the assay on Staphylococcus aureus, greater than 100 mg/L. The CC50 in the assay on K562 amounted to 39.5 µM.

The term IC50 denotes the concentration that inhibits the measured activity by half. In assay [1], `CC(=O)OC[C@]12CCCC(C)(C)[C@@H]1CC[C@]1(C)[C@@H]2C[C@@H](O)[C@]2(C)[C@@H]3C(=CC[C@@H]12)CO[C@H]3O` gave an IC50 of 107 µM. The minimal inhibitory concentration (MIC) in the assay on Bacillus subtilis is 6.25 mg/L (≈ 14 µM); in the assay with Salmonella typhimurium, 12.5 mg/L (≈ 28 µM); against Micrococcus luteus, 12.5 mg/L (≈ 28 µM); against Proteus vulgaris, 12.6 mg/L (≈ 28.2 µM); in the assay on Escherichia coli, greater than 100 mg/L; against Staphylococcus aureus it was 25 mg/L (≈ 56 µM). Also, the CC50 in the assay with K562 turned out to be 19.5 µM.

`CC(=O)O[C@@H]1C[C@@H]2[C@@]3(C)CCCC(C)(C)[C@@H]3CC[C@@]2(C)[C@@H]2CC=C3C(=O)O[C@@H](O)[C@@H]3[C@@]12C`: the midpoint of inhibition in assay [1], the IC50, lay at 112 µM. Also, the minimal inhibitory concentration (MIC) against Bacillus subtilis is 6.25 mg/L (≈ 14.1 µM); with Salmonella typhimurium, greater than 100 mg/L; against Micrococcus luteus it was greater than 100 mg/L; with Proteus vulgaris, 6.25 mg/L (≈ 14.1 µM); in the assay on Escherichia coli it was greater than 100 mg/L; in the assay with Staphylococcus aureus, greater than 100 mg/L. Further, the CC50 in the assay on K562 was found to be 28.3 µM.

As for `CO[C@@H]1OCC2=CC[C@H]3[C@]4(C)CC[C@H]5C(C)(C)CCC[C@]5(C)[C@H]4C[C@@H](OC(C)=O)[C@]3(C)[C@H]21`, the minimum inhibitory concentration (MIC) against Bacillus subtilis, in the assay with Salmonella typhimurium, against Micrococcus luteus, in the assay on Proteus vulgaris, against Escherichia coli and in the assay on Staphylococcus aureus was greater than 100 mg/L each time. Moreover, the CC50 with K562 was greater than 100 µM.

Molecule `CC(=O)O[C@@H]1C[C@@H]2[C@@]3(C)CCCC(C)(C)[C@@H]3CC[C@@]2(C)[C@@H]2CC=C3CO[C@@H](O)[C@@H]3[C@@]12C` had an IC50 in assay [1] of 55.3 µM. For the same molecule, the MIC in the assay on Bacillus subtilis, in the assay with Salmonella typhimurium, against Micrococcus luteus, in the assay with Proteus vulgaris, against Escherichia coli and against Staphylococcus aureus was greater than 100 mg/L in each case. The CC50 in the assay with K562 was determined as 31.3 µM.

As to `CO[C@@H]1OC(=O)C2=CC[C@H]3[C@]4(C)CC[C@H]5C(C)(C)CCC[C@]5(C)[C@H]4C[C@@H](OC(C)=O)[C@]3(C)[C@H]21`, inhibition in assay [1] was half-maximal at 40.8 µM (IC50). Further, the MIC in the assay with Bacillus subtilis, against Salmonella typhimurium, with Micrococcus luteus, with Proteus vulgaris, with Escherichia coli and in the assay with Staphylococcus aureus was greater than 100 mg/L each time. Moreover, in the assay with K562, the CC50 stood at 38.4 µM.

On to `CO[C@@H]1C[C@H]2[C@]3(C)CC[C@H]4C(C)(C)CCC[C@]4(C)[C@H]3C[C@@H](OC(C)=O)[C@]2(C)C2=C1C(=O)O[C@H]2O`, for which the MIC was determined as 0.78 mg/L (≈ 1.64 µM) in the assay on Bacillus subtilis; 12.5 mg/L (≈ 26.3 µM) against Salmonella typhimurium; 25 mg/L (≈ 52.7 µM) in the assay on Micrococcus luteus; 3.12 mg/L (≈ 6.58 µM) against Proteus vulgaris; 50 mg/L (≈ 105 µM) against Escherichia coli; 25 mg/L (≈ 52.7 µM) in the assay with Staphylococcus aureus. Also, the CC50 in the assay with K562 came out at 36.7 µM.

In the case of `O=C(O)CC[N+](=O)[O-]`, the IC50 in assay [1] was found to be 27.9 µM.

As for `CC1(C)S[C@@H]2[C@H](NC(=O)[C@H](N)c3ccccc3)C(=O)N2[C@H]1C(=O)O` [AMPICILLIN], the MIC was 0.78 mg/L (≈ 2.23 µM) against Bacillus subtilis; 1.56 mg/L (≈ 4.46 µM) against Salmonella typhimurium; 0.39 mg/L (≈ 1.12 µM) against Micrococcus luteus; 1.56 mg/L (≈ 4.46 µM) against Proteus vulgaris; 6.25 mg/L (≈ 17.9 µM) in the assay with Escherichia coli; 1.56 mg/L (≈ 4.46 µM) in the assay with Staphylococcus aureus.

Take `CO[C@@H]1C[C@H]2[C@]3(C)CC[C@H]4C(C)(C)CCC[C@]4(C)[C@H]3C[C@@H](OC(C)=O)[C@]2(C)C2=C1C(=O)N(CC(=O)[O-])[C@H]2OC.[Na+]`: half-maximal inhibition in assay [1] (IC50) required 176 µM. Also, the MIC in the assay on Bacillus subtilis worked out at 6.25 mg/L; with Salmonella typhimurium, 50 mg/L; with Micrococcus luteus, 25 mg/L; with Proteus vulgaris it was 25 mg/L; against Escherichia coli it was 100 mg/L; against Staphylococcus aureus it was 50 mg/L. The CC50 with K562 is 27 µM.

Take `CO[C@@H]1OCC2=CC[C@H]3[C@]4(C)CC[C@H]5C(C)(C)CCC[C@]5(C)[C@H]4C[C@@H](O)[C@]3(C)[C@H]21`: the MIC in the assay on Bacillus subtilis, against Salmonella typhimurium, in the assay with Micrococcus luteus, with Proteus vulgaris, against Escherichia coli and with Staphylococcus aureus was greater than 100 mg/L each time. Further, the CC50 in the assay on K562 came out at 24.6 µM.

For `CO[C@@H]1C[C@H]2[C@]3(C)CC[C@H]4C(C)(C)CCC[C@]4(C)[C@H]3C[C@@H](OC(C)=O)[C@]2(C)C2=C1[C@H](O)OC2=O` (mixture of isomers), the minimal inhibitory concentration (MIC) in the assay with Bacillus subtilis was less than 0.39 mg/L; with Salmonella typhimurium, 12.5 mg/L; against Micrococcus luteus, 25 mg/L; in the assay with Proteus vulgaris it was 1.56 mg/L; with Escherichia coli, greater than 100 mg/L; in the assay on Staphylococcus aureus, 25 mg/L. The CC50 in the assay with K562 was 14.8 µM.

As for `C[C@@]1(CO)CCC[C@]2(C)[C@H]3C[C@@H](O)[C@]4(C)[C@H]5COC(=O)C5=CC[C@H]4[C@]3(C)CC[C@@H]12`, the half-maximal inhibitory concentration (IC50) in assay [1] is 133 µM. In addition, the MIC with Bacillus subtilis, against Salmonella typhimurium, against Micrococcus luteus, with Proteus vulgaris, in the assay on Escherichia coli and against Staphylococcus aureus was greater than 100 mg/L throughout. The CC50 in the assay on K562 worked out at 31.1 µM.

For the molecule `COc1cccc2c1C(=O)c1c(O)c3c(c(O)c1C2=O)C[C@@](O)(C(=O)CO)C[C@@H]3O[C@H]1C[C@H](N)[C@H](O)[C@H](C)O1` [DOXORUBICIN], the CC50 in the assay with K562 was found to be 9.7 µM.

Values taken from ChEMBL document CHEMBL1773036, “Scalarane sesterterpenes from the sponge Hyatella sp” (J Nat Prod, 2011).
